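Five concentrations, 48 hours, 96-well plates. The concentration for 50% growth inhibition is given as GI50.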 Active and inactive are the calls of the source. No stated cut-off is given here; in the data, active = GI50 up to about 1.1 µM and inactive = higher.
Experiments:
Test in all cases: growth of human tumour cells (NCI), 48 h
XF498 = system: XF498
KM-20L2 = system: KM-20L2
DMS-114 = system: DMS-114
M19-MEL = system: M19-MEL
LXFL 529 = system: LXFL 529
HOP-18 = system: HOP-18
SNB-78 = system: SNB-78
RXF 631 = system: RXF 631
DLD-1 = system: DLD-1

Measured: GI50

C=C1CC(CC(=O)C(C)CC2CC(=C)C(=O)O2)OC1=O (centres undefined)
inactive: XF498 23.8 µM | KM-20L2 33 µM | DMS-114 21.6 µM | M19-MEL 16.3 µM | LXFL 529 12.8 µM | HOP-18 22.4 µM | SNB-78 17.3 µM | RXF 631 46.3 µM | DLD-1 14.4 µM

From ChEMBL document CHEMBL1201862, “PubChem BioAssay data set” (2004)
